Laboratory results taken from paper PMC8037503, “Methiothepin Increases Chemotherapy Efficacy against Resistant Melanoma Cells” (Molecules, 2021).

Target: T1, Ptch1 (Homo sapiens, UniProt Q13635)
T1 construct: human Ptch1 with C-terminal His-tag, DDM-solubilized from yeast membranes
T1 sequence (Q13635 1-1447): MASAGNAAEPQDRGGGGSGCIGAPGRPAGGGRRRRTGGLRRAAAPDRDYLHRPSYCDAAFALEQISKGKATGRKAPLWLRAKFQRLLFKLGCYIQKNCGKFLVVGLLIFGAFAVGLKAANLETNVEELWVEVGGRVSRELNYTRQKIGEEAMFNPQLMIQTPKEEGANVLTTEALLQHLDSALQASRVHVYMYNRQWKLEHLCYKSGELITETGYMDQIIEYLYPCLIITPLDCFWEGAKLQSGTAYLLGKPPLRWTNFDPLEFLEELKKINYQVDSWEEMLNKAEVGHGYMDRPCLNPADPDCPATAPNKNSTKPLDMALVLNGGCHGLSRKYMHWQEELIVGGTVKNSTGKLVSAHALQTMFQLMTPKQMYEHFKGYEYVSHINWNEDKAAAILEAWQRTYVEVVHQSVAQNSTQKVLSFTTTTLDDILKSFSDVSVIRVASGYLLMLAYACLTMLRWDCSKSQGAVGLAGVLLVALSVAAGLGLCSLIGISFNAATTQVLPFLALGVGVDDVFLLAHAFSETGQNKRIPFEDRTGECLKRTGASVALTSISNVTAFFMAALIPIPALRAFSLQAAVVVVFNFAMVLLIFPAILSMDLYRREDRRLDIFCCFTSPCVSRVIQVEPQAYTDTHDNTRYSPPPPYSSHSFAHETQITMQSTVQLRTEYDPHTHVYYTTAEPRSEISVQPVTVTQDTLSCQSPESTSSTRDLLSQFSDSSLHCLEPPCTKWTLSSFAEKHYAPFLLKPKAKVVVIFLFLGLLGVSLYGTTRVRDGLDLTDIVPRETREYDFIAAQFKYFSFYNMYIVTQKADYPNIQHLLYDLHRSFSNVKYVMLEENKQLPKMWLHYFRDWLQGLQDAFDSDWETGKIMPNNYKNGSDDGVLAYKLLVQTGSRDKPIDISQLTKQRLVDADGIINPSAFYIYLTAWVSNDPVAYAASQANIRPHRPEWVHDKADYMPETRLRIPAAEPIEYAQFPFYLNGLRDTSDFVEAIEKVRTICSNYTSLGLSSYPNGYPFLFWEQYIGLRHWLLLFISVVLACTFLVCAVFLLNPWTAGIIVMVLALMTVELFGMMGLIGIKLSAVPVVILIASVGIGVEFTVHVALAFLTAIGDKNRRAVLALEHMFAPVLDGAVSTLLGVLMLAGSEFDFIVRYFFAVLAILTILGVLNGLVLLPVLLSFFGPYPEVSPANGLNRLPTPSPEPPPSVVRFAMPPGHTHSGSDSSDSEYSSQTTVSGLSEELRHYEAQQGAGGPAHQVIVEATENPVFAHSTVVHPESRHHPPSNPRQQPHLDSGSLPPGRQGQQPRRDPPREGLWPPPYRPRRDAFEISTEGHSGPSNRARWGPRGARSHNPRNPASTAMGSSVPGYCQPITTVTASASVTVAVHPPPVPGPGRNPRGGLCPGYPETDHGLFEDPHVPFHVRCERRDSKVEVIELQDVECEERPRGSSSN
Assay: microscale thermophoresis on DDM-solubilized membranes from yeast expressing human Ptch1 (His-tag labelled)
Type: binding

A Kd of ~7 µM was found for `CSc1ccc2c(c1)C(N1CCN(C)CC1)Cc1ccccc1S2` (stereo not shown) [P375, methiothepin] in this work.
